Columns and labels:
[1] = target: T1, soluble recombinant human DPP-IV (Homo sapiens, UniProt P27487); assay: In vitro assay of enzymatic activity of recombinant soluble DPP-IV and inhibition by amino boronic dipeptides; format: biochemical; conditions: assayed 3 minutes, 78 minutes and 16 hours after addition of Ala-Pro-AFC
T1 construct: immunoglobulin kappa light chain secretion signal (pSecTag2-B) (N, cleaved yes); made in house; host or cells: 293T cells, transient transfection; unpurified culture supernatant used
T1 sequence (P27487 39-766 limits assumed): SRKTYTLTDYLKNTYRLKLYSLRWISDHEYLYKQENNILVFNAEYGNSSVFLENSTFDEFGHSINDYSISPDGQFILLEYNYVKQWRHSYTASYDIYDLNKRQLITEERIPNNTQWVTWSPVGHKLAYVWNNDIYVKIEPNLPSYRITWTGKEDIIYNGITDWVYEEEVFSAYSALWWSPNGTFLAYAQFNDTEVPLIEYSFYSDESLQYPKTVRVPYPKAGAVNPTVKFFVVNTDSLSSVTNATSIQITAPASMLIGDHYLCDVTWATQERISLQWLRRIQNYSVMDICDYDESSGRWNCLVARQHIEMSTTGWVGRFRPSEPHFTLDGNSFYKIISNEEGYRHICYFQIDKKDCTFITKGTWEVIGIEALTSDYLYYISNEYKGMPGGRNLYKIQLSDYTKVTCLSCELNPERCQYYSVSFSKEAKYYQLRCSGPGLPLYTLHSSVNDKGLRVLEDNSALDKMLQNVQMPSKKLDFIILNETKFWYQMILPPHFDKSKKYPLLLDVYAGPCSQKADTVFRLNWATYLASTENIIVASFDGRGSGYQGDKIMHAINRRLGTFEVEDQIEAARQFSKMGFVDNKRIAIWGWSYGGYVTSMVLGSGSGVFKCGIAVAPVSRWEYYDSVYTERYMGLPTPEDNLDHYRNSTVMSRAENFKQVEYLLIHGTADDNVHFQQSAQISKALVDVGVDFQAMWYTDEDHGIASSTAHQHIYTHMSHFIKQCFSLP
Text: Production of soluble recombinant human DPP-IV. Based on information on the N-terminus of serum DPP-IV (15), a truncated DPP-IV was engineered in which a signal/leader sequence was joined to the residue in DPP-IV corresponding to the N-terminus of serum DPP-IV to allow secretion. The cDNA encoding the desired truncated human DPP-IV dimer enzyme was engineered into the mammalian secretion vector pSecTag2 (Cat# V900-20, InVitrogen Corporation). The vector, available in A, B or C versions, representing three possible phases for gene fusion, contained an immunoglobulin-kappa light chain secretion signal followed by a selection of restriction sites for gene insertion. The fusion required engineering a restriction site upstream of the chosen fusion amino acid in the 5′ end of the DPP-IV dimer enzyme nucleic acid in phase with the chosen restriction site (Sfi I) in the vector secretion sequence. The chosen fusion amino acid in the 5′ end of the DPP-IV (Ser39) was 3′ of the trans-membrane anchoring domain. The pSecTag2 version B and its Sfi I restriction site was chosen for the fusion because it minimizes the additional N-terminal, vector-encoded residues in the mature secreted protein.
Construction of the fusion was as follows. First, total RNA was isolated from the Caco-2 colorectal carcinoma cell line (ATCC HTB-37) by standard Trizol/phenol/chloroform methodology. The purified RNA (approx. 2.5 μg in a 20 μl reaction) was used to make cDNA using oligo-dT primer and a commercial reverse transcription (RT) kit (InVitrogen). […] The following thermal cycler program was used: 94° C. for 45 sec. initial denaturation, then 30 cycles of 94° C., 10 sec.; 48° C., 6 sec.; 60° C., 4 min; followed by 5-min. extension at 72° C. after cycling.
DNA from the plasmid encoding DPP-IV dimer enzyme was prepared on an approximately 400 μg scale from overnight 30 ml cultures in Luria broth with 100 μg ampicillin per ml using a commercial kit (Qiagen Maxiprep Kit).
In vitro assay of enzmatic activity ofrecombinant soluble DPP-IV and inhibition by amino boronic dipeptides. The assay reaction mixture consisted of 135 μl 50 mM HEPES/Na buffer pH 7.6, 140 mM NaCl, 10-15 gl enzyme-containing culture supernatant, dipeptide substrate Ala-Pro-(7-amino-4-trifluoromethyl coumarin) (Ala-Pro-AFC; Enzyme System Products, Dublin, Calif.) at typically 0.1-1 mM added from a 100 or 400 mM stock in dimethyl formamide. The reaction mixture was incubated at room temperature, and production of the fluorescent AFC product was measured in a fluorometer (excitation, 400 nm; emission 505 nm), either by continuous monitoring or after termination with a one to one-tenth volume of 1 -M sodium acetate, pH 4.5. Fluorometric reading were made with a Molecular Dynamics Spectra Max GeminiXS capable of reading 96-well microtiter plates. The inhibitory activity of amino boronic dipeptides was investigated by preincubation of assay reaction mixtures with varying concentrations of each compound for 10 minutes before the addition of the substrate Ala-Pro-AFC.

serum DPP-IV [2] = target: T2, serum DPP-IV (Mus musculus, UniProt P28843); assay: Serum DPP-IV inhibition in vivo after oral gavage (Example 2); set-up: species or system BALB/c mice
T2 construct: from tissue; host or cells: serum of BALB/c mice dosed orally
T2 sequence (P28843 37-760 limits assumed): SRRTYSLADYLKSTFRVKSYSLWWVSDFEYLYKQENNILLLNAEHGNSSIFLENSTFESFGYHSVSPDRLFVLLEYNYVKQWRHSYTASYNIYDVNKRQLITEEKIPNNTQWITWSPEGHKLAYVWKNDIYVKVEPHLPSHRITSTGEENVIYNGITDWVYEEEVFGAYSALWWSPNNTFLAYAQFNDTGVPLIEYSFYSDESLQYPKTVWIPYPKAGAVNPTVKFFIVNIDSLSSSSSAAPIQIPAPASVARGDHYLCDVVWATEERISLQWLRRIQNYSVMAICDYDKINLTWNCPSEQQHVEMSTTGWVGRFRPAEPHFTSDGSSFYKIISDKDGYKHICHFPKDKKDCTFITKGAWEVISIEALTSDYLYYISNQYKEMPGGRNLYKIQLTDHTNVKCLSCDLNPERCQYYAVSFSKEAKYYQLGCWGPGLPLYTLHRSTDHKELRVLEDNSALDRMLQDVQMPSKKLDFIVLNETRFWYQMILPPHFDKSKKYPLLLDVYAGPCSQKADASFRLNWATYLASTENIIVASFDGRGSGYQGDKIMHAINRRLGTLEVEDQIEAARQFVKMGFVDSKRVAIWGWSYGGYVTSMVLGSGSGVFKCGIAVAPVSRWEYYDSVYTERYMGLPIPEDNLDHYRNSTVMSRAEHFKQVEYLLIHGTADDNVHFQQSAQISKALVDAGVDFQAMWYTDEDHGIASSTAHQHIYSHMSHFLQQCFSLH
Description: Assay of serum DPP-IV inhibition in vivo. […] DPP-IV activity was determined by reaction of 10 μl serum with 90 μl of 0.11 mM Ala-Pro-AFC (Enzyme System Products, Dublin, Calif.) in 50 mM HEPES/Na buffer pH 7.6, 140 mM NaCl.

serum DPP-IV [3] = target: T2, serum DPP-IV; assay: Serum DPP-IV activity 2 hours after oral amino boronic dipeptides (Example 4); format: in vivo, BALB/c mice; conditions: 20 and 200 μg doses
Description: (§1) Assay ofserum DPP-IV inhibition and KC/CXCL1 levels in vivo. […] Each mouse received a single administration of each amino boronic dipeptide or saline, and blood samples were withdrawn from mice 2 hours later.
Serum DPP-IV activity was determined by reaction of a 10 μl volume of serum with 0.1 mM Ala-Pro-AFC (Enzyme System Products, Dublin, Calif.) in a 100 μl volume of 50 mM HEPES/Na buffer pH 7.6, 140 mM NaCl. […] Serum DPP-IV activity was expressed as fluorescent units (FU).

serum KC/CXCL1 = assay: Serum KC/CXCL1 levels in vivo (ELISA); set-up: species or system BALB/c mice; conditions: 0.2-200 μg/mouse oral, 2 hours
Description: as §1
Serum concentration of mouse KC/CXCL1 was determined by Quantikine enzyme-linked immunosorbent assay (ELISA; R&D Systems, Minneapolis, Minn.) according to the manufacturer's instructions. ELISA was performed in duplicate for each sample.

in vivo = conditions: Lewis, rat, in vivo
Description: (§2) Serum DPP-IV inhibition and observation of acute toxicity of amino boronic dipeptides in Lewis rats. […] After observations were completed or at the onset of a moribund state, humane euthanasia was performed by asphyxiation in 100% CO2.

Lewis rats = assay: in vivo; conditions: Lewis, rat, in vivo, 5 days
Description: as §2

ob/ob mice = assay: Mouse oral glucose tolerance test (OGTT); format: in vivo
Description: Protocol for mouse oral glucose tolerance test (OGTT). The day of oral-glucose challenge was defined as day 0. […] Agents were administered by oral gavage. Mice were restricted to a diet of 50% of their individual calculated food intake from day −1 onwards. On day 0, blood glucose was measured at […]. immediately followed by drug administration. At time point 0, glucose was administered by oral gavage (1g/kg), and blood glucose was measured at time points 0, 30, 60, 120 and 240 minutes. Means±SE were calculated from the data of individual mice in drug-treatment groups 1 and 2.

Zucker fa/fa rats [4] = assay: Rat oral glucose tolerance test (glucose, insulin, GLP-1); format: in vivo; conditions: 10 μmol/kg oral
Text: Protocol for rat oral glucose tolerance test (OG7T). […] On days −11 to −8, rats were fitted with intra-arterial catheters under light isoflurane anesthesia. […] From 12:00 a.m.

[5] = tested on: Zucker Diabetic Fatty (ZDF) rats; assay: 6 week glycemic control study in Zucker Diabetic Fatty rats; format: in vivo
Description: The design of the 6 week long study is depicted in FIG. 8. 60 male Zucker Diabetic Fatty (ZDF) rats (5 weeks of age) were obtained from Charles River Labs. The animals are housed singly and allowed to acclimatize for 1 week before the initiation of the study. 24-hour food intake and body weight was measured gravimetrically twice weekly from the start of housing. HbA1C levels were measured at Day 0, 7, 14, 28 and 46. OGTT was administered on Day 2-3, 15 minutes after the administration of the drugs. OGTT was administered again at the end of the study but in this case, drugs were given 15 hours prior to the OGTT. The 24-hour glucose profile was monitored at day 14-15 of the study.
The insulin sensitivity index was calculated at the termination of the study according to the method described by Matsuda and DeFronzo (Diabetes Care. 1999 Sep.;22(9):1462-70).

Zucker fa/fa rats [6] = assay: Single oral dose before oral glucose challenge, Zucker Fa/Fa rats (Example 10); format: in vivo; conditions: single oral dose 15 minutes prior to oral glucose
Text: The data shown in FIG. 15 are mean values from 6 rats per treatment.

DIO rats = assay: Single oral dose before oral glucose challenge, DIO rats (Example 10); format: in vivo; conditions: single oral dose 15 minutes prior to oral glucose
Text: The data shown in FIG. 16A are mean values from 10 rats per treatment.
The data shown in FIG. 16B are mean values from 10 rats per treatment.

## N[C@@H](CCC(=O)O)C(=O)N1CCC[C@H]1B(O)O [Glu-boroPro, glutamic acid boroproline]
[1]
  persistence of DPP-IV inhibition after preincubation: sustained DPP-IV inhibition
Serum DPP-IV [2]; BALB/c mice, single oral dose, 2 hours
  ID50 (dose reducing serum DPP-IV activity by 50% of baseline): 1 μg per mouse
Serum DPP-IV [2]; single oral 5 μg or 20 μg per mouse, until at least 6 hours
  serum DPP-IV inhibition persisting: greater than 80%
Serum DPP-IV [3]
  serum DPP-IV activity: maximally inhibited serum DPP-IV activity
Serum KC/CXCL1
  serum levels of KC/CXCL1: failed to affect serum levels of KC/CXCL1 at any of the doses tested
In vivo
  MTD at 5 days: 15 mg/kg
Lewis rats
  MTD (maximum tolerated dose): 15,000 μg/kg
ob/ob mice; 1.0 μmol/kg oral, 15 minutes prior to glucose
  glucose excursion post oral glucose challenge: reduced
ob/ob mice; single 1.0 μmol/kg dose
  anti-glycemic effect, area under the blood glucose curve: significant
Zucker fa/fa rats [4]; 15 min before glucose 2 g/kg
  blood glucose excursion: reduced
Zucker fa/fa rats [4]; after oral glucose challenge
  blood plasma level of GLP-1: increased
  blood plasma level of insulin: increased
[5]; 10 μmole/kg, day 14-15
  AUC of 24 hour glucose profile: achieve significance
[5]; 3 micromole/kg, 46 days of treatment
  triglyceride (TG) lowering: significant improvement
[5]; 10 micromole/kg
  food intake over time: apparent slight decrease in food intake
[5]; 10 micromole/kg, 46 days of treatment
  triglyceride (TG) lowering: significant improvement
[5]; 10 micromole/kg, Day 46
  HbA1C level compared to vehicle: significant reduction
[5]; 10 micromole/kg, OGTT 15 hours after drug, end of study
  OGTT glucose levels compared to vehicle: significant reduction in glucose levels
[5]; 10 micromole/kg, day 14-15
  24-hour glucose profile: improved compared to the metformin and the NVP-LAF237 groups
[5]; 10 micromoles/kg, Day 0 to Day 46
  rate of increase in HbA1C over time: decline in the rate of increase in HbA1C was most prominent
[5]; 46 days of treatment, compared to vehicle
  free fatty acids (FFA): trend towards free fatty acids (FFA) reduction but this did not reach significance
Zucker fa/fa rats [6]
  insulin response: improved insulin response
DIO rats
  insulin response: improved insulin response
  insulin secretion calculated from AUC: increased insulin secretion
